Assay results from ChEMBL document CHEMBL1135214, “Meiosis activating sterols derived from diosgenin” (2002).
Calls of active or inactive are those of the source. The calls are words filed in the database; no cut-off is given here.

Species: Mus musculus
Assay: Tested for ability to induce meiosis in immature mouse oocytes by measuring the rate of germinal vesicle breakdown (GVB)
Type: functional

| Structure (SMILES) | Activity [%] |
| --- | --- |
| CC(C)=CCC[C@@H](C)[C@H]1CC=C2C3=C(CC[C@@]21C)[C@@]1(C)CC[C@H](O)C(C)(C)[C@@H]1CC3 | 100 |

Species: Mus musculus
Assay: Tested for ability to induce meiosis in immature mouse oocytes by measuring the rate of germinal vesicle breakdown (GVB) relative to FF-MAS
Type: functional
Set-up: concentration or dose not given beside the values

| Structure (SMILES) | Relative activity [%] |
| --- | --- |
| CC(CO)CCC[C@@H](C)[C@H]1CC[C@H]2[C@@H]3CC=C4C(C)(C)[C@@H](O)CC[C@]4(C)[C@H]3CC[C@]12C (single isomer, unassigned) | 71 |
| C=C(C)CCC[C@@H](C)[C@H]1CC=C2C3=C(CC[C@@]21C)[C@@]1(C)CC[C@H](O)C(C)(C)[C@@H]1CC3 | 106 |
| C[C@@H](CCl)CCC[C@@H](C)[C@H]1CC=C2C3=C(CC[C@@]21C)[C@@]1(C)CC[C@H](O)C(C)(C)[C@@H]1CC3 | 87 |
| CC(C)CCC[C@@H](C)[C@H]1[C@@H](O)CC2C3CC=C4C(C)(C)[C@@H](O)CC[C@]4(C)C3CC[C@@]21C (stereo partly drawn) | 113 |
| CC(C)CCC[C@@H](C)[C@H]1[C@@H](O)CC2C3CC=C4CCCC[C@]4(C)C3CC[C@@]21C (stereo partly drawn) | 87 |
| CC(C)CCC[C@@H](C)[C@H]1[C@@H](O[Si](C)(C)C(C)(C)C)CC2C3CC=C4C[C@@H](O)CC[C@]4(C)C3CC[C@@]21C (stereo partly drawn) | 43 |
| C[C@@H](CI)CCC[C@@H](C)[C@H]1CC=C2C3=C(CC[C@@]21C)[C@@]1(C)CC[C@H](O)C(C)(C)[C@@H]1CC3 | 85 |
| CC(C)CCC[C@@H](C)[C@H]1[C@@H](O)CC2C3=CC=C4C(C)(C)[C@@H](O)CC[C@]4(C)C3CC[C@@]21C (stereo partly drawn) | 90 |
| C[C@@H](CO)CCC[C@@H](C)[C@H]1CCC2C3=CC=C4C(C)(C)[C@@H](O)CC[C@]4(C)C3CC[C@@]21C (stereo partly drawn) | 89 |
| C[C@H](CCCC(C)(C)Cl)[C@H]1CC=C2C3=C(CC[C@@]21C)[C@@]1(C)CC[C@H](O)C(C)(C)[C@@H]1CC3 | 62 |

Species: Mus musculus
Assay: Tested for ability to induce meiosis in immature mouse oocytes by measuring the rate of germinal vesicle breakdown (GVB) relative to FF-MAS; na means Not active
Type: functional

| Structure (SMILES) | Relative activity |
| --- | --- |
| C[C@@H](CO)CCC[C@@H](C)[C@H]1CCC2C3CC=C4C[C@@H](O)CC[C@]4(C)C3CC[C@@]21C (stereo partly drawn) | inactive |
| C[C@@H](CO)CCC[C@@H](C)[C@H]1CC=C2C3=C(CC[C@@]21C)[C@@]1(C)CC[C@H](O)C(C)(C)[C@@H]1CC3 | inactive |
